ChEMBL document CHEMBL4507276 (2021)

How the values were obtained:
Settings in all cases: Compound concentration 1000.0 nM
[1] = biological target: Cyclin-dependent kinase 7 (Homo sapiens) (UniProt P50613)
[2] = biological target: T1, Homeodomain-interacting protein kinase 4 (Homo sapiens) (UniProt Q8NE63)
T1 sequence (whole entry): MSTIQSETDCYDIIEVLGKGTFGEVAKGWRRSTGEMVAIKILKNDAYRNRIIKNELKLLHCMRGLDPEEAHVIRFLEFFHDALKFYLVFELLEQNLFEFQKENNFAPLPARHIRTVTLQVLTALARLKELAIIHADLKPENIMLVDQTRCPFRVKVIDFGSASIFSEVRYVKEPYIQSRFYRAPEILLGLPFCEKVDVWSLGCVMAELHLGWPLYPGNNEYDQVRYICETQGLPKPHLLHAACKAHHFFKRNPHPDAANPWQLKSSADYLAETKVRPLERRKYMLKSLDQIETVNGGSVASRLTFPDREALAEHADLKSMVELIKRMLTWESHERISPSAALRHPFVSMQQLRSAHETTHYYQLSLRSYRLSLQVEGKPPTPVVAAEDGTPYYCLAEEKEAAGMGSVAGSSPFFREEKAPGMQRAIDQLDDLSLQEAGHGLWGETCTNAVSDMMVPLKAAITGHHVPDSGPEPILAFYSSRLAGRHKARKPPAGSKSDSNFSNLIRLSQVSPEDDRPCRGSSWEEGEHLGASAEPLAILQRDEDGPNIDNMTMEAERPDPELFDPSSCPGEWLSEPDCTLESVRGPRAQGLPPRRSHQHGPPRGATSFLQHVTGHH

[3] = biological target: T2, Inhibitor of nuclear factor kappa-B kinase subunit beta (Homo sapiens) (UniProt O14920)
T2 sequence (whole entry): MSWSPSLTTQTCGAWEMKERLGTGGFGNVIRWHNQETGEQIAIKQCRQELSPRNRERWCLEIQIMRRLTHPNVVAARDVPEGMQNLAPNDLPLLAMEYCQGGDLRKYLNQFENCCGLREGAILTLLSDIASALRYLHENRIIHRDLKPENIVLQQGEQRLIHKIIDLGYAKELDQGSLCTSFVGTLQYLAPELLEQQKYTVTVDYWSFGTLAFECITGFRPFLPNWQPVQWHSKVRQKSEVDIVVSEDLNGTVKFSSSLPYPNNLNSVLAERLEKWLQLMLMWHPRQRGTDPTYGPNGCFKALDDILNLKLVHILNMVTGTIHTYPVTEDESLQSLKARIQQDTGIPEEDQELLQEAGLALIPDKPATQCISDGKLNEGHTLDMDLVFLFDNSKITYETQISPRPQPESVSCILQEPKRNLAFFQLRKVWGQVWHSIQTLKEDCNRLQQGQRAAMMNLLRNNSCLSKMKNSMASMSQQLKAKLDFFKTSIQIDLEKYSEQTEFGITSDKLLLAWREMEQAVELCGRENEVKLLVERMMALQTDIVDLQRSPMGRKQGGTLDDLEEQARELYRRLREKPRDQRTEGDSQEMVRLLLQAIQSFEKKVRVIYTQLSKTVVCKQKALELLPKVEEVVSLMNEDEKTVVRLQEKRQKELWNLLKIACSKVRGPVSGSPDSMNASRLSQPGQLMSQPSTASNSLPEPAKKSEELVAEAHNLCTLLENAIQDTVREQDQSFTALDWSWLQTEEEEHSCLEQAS

[4] = biological target: LIM domain kinase 2 (Homo sapiens) (UniProt P53671)
Chain of LIM domain kinase 2 (Homo sapiens) (P53671 whole entry, looked up, the tested form may be a part): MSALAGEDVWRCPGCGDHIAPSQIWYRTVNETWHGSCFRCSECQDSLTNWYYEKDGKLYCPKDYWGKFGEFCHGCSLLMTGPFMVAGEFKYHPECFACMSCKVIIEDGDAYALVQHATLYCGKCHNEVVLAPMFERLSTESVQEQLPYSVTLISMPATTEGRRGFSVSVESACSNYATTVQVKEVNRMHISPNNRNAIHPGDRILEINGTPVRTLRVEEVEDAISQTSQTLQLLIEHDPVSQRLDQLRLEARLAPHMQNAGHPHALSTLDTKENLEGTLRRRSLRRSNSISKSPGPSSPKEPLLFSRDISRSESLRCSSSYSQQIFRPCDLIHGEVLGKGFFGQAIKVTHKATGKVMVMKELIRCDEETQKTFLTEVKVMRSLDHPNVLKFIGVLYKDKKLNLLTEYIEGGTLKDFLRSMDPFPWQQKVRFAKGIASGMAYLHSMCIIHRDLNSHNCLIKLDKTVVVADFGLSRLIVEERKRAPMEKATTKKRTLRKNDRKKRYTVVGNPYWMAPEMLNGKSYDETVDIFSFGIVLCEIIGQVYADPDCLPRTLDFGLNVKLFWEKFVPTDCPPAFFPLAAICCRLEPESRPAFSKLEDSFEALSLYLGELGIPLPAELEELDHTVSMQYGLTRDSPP

[5] = biological target: T3, Dual specificity mitogen-activated protein kinase kinase 3 (Homo sapiens) (UniProt P46734)
T3 sequence (whole entry): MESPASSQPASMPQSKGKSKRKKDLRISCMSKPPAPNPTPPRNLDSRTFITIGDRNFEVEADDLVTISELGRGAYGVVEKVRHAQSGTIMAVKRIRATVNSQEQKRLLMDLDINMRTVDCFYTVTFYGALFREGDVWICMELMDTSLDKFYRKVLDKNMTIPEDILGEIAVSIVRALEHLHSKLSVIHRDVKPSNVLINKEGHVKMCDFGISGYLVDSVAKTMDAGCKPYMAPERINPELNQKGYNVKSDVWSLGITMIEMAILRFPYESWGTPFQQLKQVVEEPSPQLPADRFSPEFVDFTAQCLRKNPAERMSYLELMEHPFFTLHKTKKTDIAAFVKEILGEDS

[6] = biological target: Myosin light chain kinase family member 4 (Homo sapiens) (UniProt Q86YV6)
Chain of Myosin light chain kinase family member 4 (Homo sapiens) (Q86YV6 whole entry): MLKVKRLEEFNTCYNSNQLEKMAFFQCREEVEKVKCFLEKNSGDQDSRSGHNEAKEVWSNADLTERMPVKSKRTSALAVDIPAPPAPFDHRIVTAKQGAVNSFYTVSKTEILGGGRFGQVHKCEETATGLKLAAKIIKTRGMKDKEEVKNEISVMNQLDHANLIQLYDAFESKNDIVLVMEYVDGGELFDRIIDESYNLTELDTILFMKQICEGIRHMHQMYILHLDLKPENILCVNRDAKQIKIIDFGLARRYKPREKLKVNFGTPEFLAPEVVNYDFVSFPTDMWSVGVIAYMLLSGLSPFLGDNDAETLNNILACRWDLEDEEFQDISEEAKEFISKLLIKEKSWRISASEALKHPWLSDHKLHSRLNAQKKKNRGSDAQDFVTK

[7] = biological target: Serine/threonine-protein kinase 38 (Homo sapiens) (UniProt Q15208)
Chain of Serine/threonine-protein kinase 38 (Homo sapiens) (Q15208 2-465 limits assumed): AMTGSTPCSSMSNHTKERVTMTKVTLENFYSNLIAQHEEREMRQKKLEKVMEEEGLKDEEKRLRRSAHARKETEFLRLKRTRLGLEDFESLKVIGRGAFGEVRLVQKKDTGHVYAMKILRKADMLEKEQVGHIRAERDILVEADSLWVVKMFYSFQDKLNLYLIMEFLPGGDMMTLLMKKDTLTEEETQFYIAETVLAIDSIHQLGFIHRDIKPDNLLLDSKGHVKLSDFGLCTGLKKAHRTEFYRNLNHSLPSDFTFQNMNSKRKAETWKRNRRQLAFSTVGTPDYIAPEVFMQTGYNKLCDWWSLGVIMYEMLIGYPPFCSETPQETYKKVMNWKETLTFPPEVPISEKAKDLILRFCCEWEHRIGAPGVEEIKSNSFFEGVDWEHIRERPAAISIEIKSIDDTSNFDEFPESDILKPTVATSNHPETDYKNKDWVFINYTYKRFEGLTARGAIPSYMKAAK

[8] = biological target: T4, Serine/threonine-protein kinase Nek9 (Homo sapiens) (UniProt Q8TD19)
T4 sequence (whole entry): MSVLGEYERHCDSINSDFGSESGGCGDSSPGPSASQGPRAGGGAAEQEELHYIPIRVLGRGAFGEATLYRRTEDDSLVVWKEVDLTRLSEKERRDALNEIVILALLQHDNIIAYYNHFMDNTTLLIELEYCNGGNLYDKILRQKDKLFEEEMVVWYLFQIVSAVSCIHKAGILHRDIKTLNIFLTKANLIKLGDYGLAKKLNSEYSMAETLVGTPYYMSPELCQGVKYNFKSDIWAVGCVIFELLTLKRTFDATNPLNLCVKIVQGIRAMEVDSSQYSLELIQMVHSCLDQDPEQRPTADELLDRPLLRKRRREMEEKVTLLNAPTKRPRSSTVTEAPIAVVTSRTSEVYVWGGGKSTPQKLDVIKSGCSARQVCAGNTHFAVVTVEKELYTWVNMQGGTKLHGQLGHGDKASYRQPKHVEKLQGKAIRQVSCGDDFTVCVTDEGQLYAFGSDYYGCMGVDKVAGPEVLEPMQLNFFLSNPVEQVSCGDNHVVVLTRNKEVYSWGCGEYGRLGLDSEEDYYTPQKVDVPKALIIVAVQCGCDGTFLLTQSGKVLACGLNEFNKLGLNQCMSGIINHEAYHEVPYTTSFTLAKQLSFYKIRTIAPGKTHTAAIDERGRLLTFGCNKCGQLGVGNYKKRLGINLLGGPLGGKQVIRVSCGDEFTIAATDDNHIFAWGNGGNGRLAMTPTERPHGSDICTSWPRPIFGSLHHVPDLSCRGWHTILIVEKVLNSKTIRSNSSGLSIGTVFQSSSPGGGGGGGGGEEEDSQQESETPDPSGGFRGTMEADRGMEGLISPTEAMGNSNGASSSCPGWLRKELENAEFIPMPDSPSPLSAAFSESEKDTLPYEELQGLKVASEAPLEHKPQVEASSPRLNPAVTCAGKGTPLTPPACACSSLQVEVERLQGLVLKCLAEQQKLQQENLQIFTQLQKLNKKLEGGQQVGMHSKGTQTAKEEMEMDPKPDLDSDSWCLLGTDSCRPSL

[9] = biological target: Protein-tyrosine kinase 2-beta (Homo sapiens) (UniProt Q14289)
Chain of Protein-tyrosine kinase 2-beta (Homo sapiens) (Q14289 whole entry, looked up): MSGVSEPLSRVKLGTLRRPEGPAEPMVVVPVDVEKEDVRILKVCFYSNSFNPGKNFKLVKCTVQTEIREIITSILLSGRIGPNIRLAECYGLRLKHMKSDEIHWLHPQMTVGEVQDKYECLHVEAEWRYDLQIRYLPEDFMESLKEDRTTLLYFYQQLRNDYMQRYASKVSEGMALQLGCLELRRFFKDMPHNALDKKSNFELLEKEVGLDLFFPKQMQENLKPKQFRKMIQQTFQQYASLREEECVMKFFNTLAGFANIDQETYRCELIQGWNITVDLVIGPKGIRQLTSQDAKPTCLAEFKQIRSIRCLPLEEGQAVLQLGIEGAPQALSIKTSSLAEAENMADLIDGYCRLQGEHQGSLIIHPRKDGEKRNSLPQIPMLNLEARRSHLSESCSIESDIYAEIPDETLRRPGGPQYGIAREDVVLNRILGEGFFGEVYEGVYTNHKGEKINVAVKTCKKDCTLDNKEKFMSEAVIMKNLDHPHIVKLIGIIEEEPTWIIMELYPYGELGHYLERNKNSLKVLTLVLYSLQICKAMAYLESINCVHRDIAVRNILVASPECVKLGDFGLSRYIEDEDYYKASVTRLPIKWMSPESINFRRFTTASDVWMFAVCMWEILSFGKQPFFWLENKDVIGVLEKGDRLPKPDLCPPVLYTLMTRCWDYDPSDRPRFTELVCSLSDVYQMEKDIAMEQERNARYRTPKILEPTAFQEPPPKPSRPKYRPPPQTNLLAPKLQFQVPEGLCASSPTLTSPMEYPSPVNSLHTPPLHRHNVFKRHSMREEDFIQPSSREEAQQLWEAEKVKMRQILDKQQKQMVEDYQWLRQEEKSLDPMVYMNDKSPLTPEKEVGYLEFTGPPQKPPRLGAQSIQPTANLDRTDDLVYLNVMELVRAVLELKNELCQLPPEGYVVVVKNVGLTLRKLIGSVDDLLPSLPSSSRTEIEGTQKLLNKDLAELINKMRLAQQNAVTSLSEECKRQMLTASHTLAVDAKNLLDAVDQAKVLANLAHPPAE

Measured: residual activity

Chain of Cyclin-dependent kinase 7 (Homo sapiens) (P50613 whole entry): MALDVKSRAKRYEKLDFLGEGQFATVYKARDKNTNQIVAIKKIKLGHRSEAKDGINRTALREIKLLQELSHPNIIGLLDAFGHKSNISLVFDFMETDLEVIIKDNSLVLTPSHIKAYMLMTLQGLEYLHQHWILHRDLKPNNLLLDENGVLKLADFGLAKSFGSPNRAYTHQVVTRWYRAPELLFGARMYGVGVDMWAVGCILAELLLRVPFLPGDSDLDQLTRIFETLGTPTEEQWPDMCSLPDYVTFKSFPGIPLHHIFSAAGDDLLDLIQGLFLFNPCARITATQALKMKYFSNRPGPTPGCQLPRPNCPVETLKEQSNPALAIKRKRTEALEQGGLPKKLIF

CN(C)C(=O)Cn1cc(-c2nc(C3(c4ccc(-c5cnc(N)nc5)cc4)CC3)no2)cn1 [BI 0153]
inactive: [1] 72% | [2] 100% | [3] 90% | [4] 85% | [5] 71% | [6] 100% | [7] 84% | [8] 100% | [9] 90%

CN(C)C(=O)Cn1cc(-c2nc([C@@](C)(c3ccc(-c4cnc(N)nc4)cc3)C3CC3)no2)cn1 [BI 665915]
inactive: [1] 59% | [2] 70% | [3] 100% | [4] 85% | [5] 83% | [6] 100% | [7] 80% | [8] 95% | [9] 87%
